In PubChem BioAssay AID463136 (University of Pittsburgh Molecular Library Screening Center, 2010) one finds inhibition and IC50 data, which are given here for 35 compounds.

Inconclusive results are not listed. Active and inactive are the calls of the source. No rule for the calls is given here.

Experiment [1] in a line: dynein cargo transport inhibitors, potency, dose response, imaging, high-content imaging (AID 463136).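 Also: mouse mammary adenocarcinoma 3617.4 cells expressing GFP-tagged rat glucocorticoid receptor.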 As to inhibition: reference of the scale not given here. Particulars: HCS imaging, dynein-mediated cargo transport inhibition; inhibition at max concentration; at 50 µM; stronger effect = higher value.
Experiment [2] has as its system HCS imaging, dynein-mediated cargo transport inhibition. The experiment is described as above.

As for `C=CCn1c(C)cc(C(=O)Cn2ncc(Cl)c(Cl)c2=O)c1C`, in experiment [1], the inhibition turned out to be 86.5%. Besides, in experiment [2], the half-maximal inhibitory concentration (IC50) is 10.3 µM.

As for `COc1cc(N2C(=O)C=CC2=O)c(OC)cc1Cl`, in experiment [1], the inhibition is 12.9%. The IC50 in experiment [2] was > 50 µM (inactive).

As to `N#C/C(=C\c1cccc([N+](=O)[O-])c1)C(=O)NCc1ccc(Cl)cc1`, the inhibition in experiment [1] came to 13.8%. The IC50 in experiment [2] was > 50 µM (inactive).

On to `Cc1ccccc1NC(=O)COC(=O)c1ccc(S(C)(=O)=O)c([N+](=O)[O-])c1`, for which, in experiment [1], the inhibition stood at 81.2%. Also, in experiment [2], the IC50 is 31.8 µM.

As for `CC[n+]1c(/C=C2\Sc3ccccc3N2C)ccc2cccc(C)c21`, the inhibition in experiment [1] turned out to be 28.3%. Besides, the IC50 in experiment [2] is 0.765 µM.

Regarding `O=c1cc(C(F)(F)F)c2cc3c4c(c2o1)CCCN4CCC3`, the inhibition in experiment [1] is 99.6%. In addition, the IC50 in experiment [2] is 5.51 µM.

Take `O=C(NC1CCCCC1)C(c1cccnc1)N(C(=O)CCl)c1ccc(F)cc1` (stereo not given): the inhibition in experiment [1] is 82.2%. For the same compound, the concentration for half-maximal inhibition (IC50) in experiment [2] was 12.7 µM.

Consider `COc1ccc(N(C(=O)CCl)C(C(=O)NC2CCCCC2)c2cccnc2)cc1` (stereo not given), for which, in experiment [1], the inhibition came out at 85.5%. Further, the 50% inhibitory concentration (IC50) in experiment [2] is 13.3 µM.

Take `O=[N+]([O-])/C=C/c1cn(Cc2ccc(F)cc2)c2ccccc12`: the inhibition in experiment [1] was found to be 14%. Further, the IC50 in experiment [2] was > 50 µM (inactive).

As for `COc1ccc(C(CCN(Cc2ccc(OC)c(OC)c2)C(=O)CCl)c2ccccc2)cc1` (stereo not given), the inhibition in experiment [1] came to 70.4%. In addition, the IC50 in experiment [2] is 37 µM.

For the compound `Cc1ccccc1-n1nnnc1Sc1nnnn1-c1ccccc1`, the inhibition in experiment [1] is 87.8%. The half-maximal inhibitory concentration (IC50) in experiment [2] was 17.6 µM.

In the case of `COCCN(C(=O)CCl)C(C(=O)NC1CCCCC1)c1ccccc1C` (stereo not given), in experiment [1], the inhibition turned out to be 79.5%. For the same compound, the IC50 in experiment [2] is 24.8 µM.

Turning to `O=C(NC1CCCC1)C(c1ccc(F)cc1)N(Cc1ccc(F)cc1)C(=O)CCl` (stereo not given), in experiment [1], the inhibition was determined as 73.1%. Also, the IC50 in experiment [2] was 38.5 µM.

In the case of `COc1ccc(/C=C/C(=O)c2c(O)c(OC)c3occc3c2OC)cc1`, in experiment [1], the inhibition worked out at 30.2%. For the same compound, the IC50 in experiment [2] is > 50 µM (inactive).

Consider `COc1ccc(Oc2cc(NC(=O)c3nn(C)cc3[N+](=O)[O-])cc([N+](=O)[O-])c2)cc1`, for which the inhibition in experiment [1] is 69.9%. Also, the concentration for half-maximal inhibition (IC50) in experiment [2] is 43 µM.

Consider `COC(=O)c1cc(=O)n(Cc2ccc(OC)c(OC)c2)c(=Nc2ccc(F)cc2)s1`, for which the inhibition in experiment [1] was determined as 74.3%. Further, the IC50 in experiment [2] is 24.6 µM.

Regarding `N#CC(C#N)=C1C=C2C=C(N3CCCCCC3)CCC2CC1` (stereo not given), the inhibition in experiment [1] is 99.2%. Further, the IC50 in experiment [2] is 36.2 µM.

For the compound `CCN(CC)c1ccc2cc(-c3nc(-c4ccc(OC)cc4)cs3)c(=O)oc2c1`, the inhibition in experiment [1] amounted to 98.4%. The IC50 in experiment [2] was 25.7 µM.

`COc1ccc(-n2c(C)cc(C(=O)CCl)c2C)cc1`: the inhibition in experiment [1] is 80.4%. Moreover, the IC50 in experiment [2] is 13.1 µM.

As to `O=C(Nc1ccccc1)c1nnsc1S(=O)c1ccc(Cl)cc1` (stereo not given), the inhibition in experiment [1] was 32.1%. Moreover, the IC50 in experiment [2] was > 50 µM (inactive).

`Cc1cc(C)nc(S/C=C/C(=O)c2ccccc2F)n1`: the inhibition in experiment [1] amounted to 83.3%. For the same compound, the IC50 in experiment [2] was 19.3 µM.

Consider `O=C(/C=C/Sc1ccccc1)c1ccccc1`, for which the inhibition in experiment [1] amounted to 76.9%. The IC50 in experiment [2] was 30.3 µM.

As to `O=C(NCc1cccnc1)/C(=C/c1ccc(-c2ccc(Cl)cc2)o1)S(=O)(=O)c1ccccc1`, the inhibition in experiment [1] came to 59.1%. Also, in experiment [2], the half-inhibitory concentration (IC50) was 34.3 µM.

For the compound `N#CC12COC3(CCCCC3C1(C#N)C#N)OC2=N` (stereo not given), the inhibition in experiment [1] worked out at 8.2%. In addition, the IC50 in experiment [2] was > 50 µM (inactive).

Consider `COC(=O)c1cc(=O)n(CCc2ccc(OC)cc2)c(=Nc2ccc(F)c(Cl)c2)s1`, for which the inhibition in experiment [1] turned out to be 13.5%. The IC50 in experiment [2] is > 50 µM (inactive).

`COC(C/C=C/C(=O)COCc1ccccc1)OC`: the inhibition in experiment [1] came out at 69.3%. In experiment [2], the IC50 is 8.5 µM.

`O=C1NC(=O)N(Cc2ccc(F)cc2)C(=O)/C1=C\C=C\c1ccco1`: in experiment [1], the inhibition came to 74.8%. The half-maximal inhibitory concentration (IC50) in experiment [2] is 30.9 µM.

For the compound `Cc1cc(-n2c(C)cc(C(=O)CCl)c2C)no1`, the inhibition in experiment [1] is 67.7%. Besides, in experiment [2], the IC50 was 9.45 µM.

Turning to `CCN1CC=C2C(C#N)=C(N)C(C#N)(C#N)C(CCc3ccccc3)C2C1` (stereo not given), the inhibition in experiment [1] was determined as 98.8%. For the same compound, in experiment [2], the IC50 is 19.5 µM.

For the compound `Cc1ccc(C2=NOC(=O)/C2=C\C=C\c2ccccc2)cc1`, the inhibition in experiment [1] amounted to 71%. Moreover, in experiment [2], the IC50 was 36.6 µM.

For the compound `N#C/C(=C/c1ccc(N2CCCCCC2)o1)c1ccc(F)cc1`, the inhibition in experiment [1] is 33.8%. In addition, the IC50 in experiment [2] is > 50 µM (inactive).

On to `O=C1NC(=O)N(c2ccccc2)C(=O)/C1=C\C=C\c1ccccc1`, for which, in experiment [1], the inhibition is 80.9%. Also, the IC50 in experiment [2] was 28.8 µM.

`Cc1ccc(N2C(=N)/C(=C3/Nc4ccccc4S3)C(c3ccccc3)C2=O)cc1` (stereo not given): in experiment [1], the inhibition turned out to be 81.8%. Further, the half-maximal inhibitory concentration (IC50) in experiment [2] is 23.2 µM.

Take `CC(C)CN1C(=O)/C(=C/c2c(N3CCc4ccccc4C3)nc3ccccn3c2=O)SC1=S`: the inhibition in experiment [1] stood at 131%. Also, the IC50 in experiment [2] is 26 µM.

Take `Cc1ccc(N2C(=O)NC(=O)/C(=C/C=C/c3ccco3)C2=O)cc1`: in experiment [1], the inhibition is 114%. For the same compound, the IC50 in experiment [2] is 24.8 µM.
